Active and inactive are the calls of the source. No cut-off for these calls is given here.
Key:
[1] = target: Glutamate receptor ionotropic, AMPA (Mus musculus) (UniProt P23819+P23818+Q9Z2W8+Q9Z2W9); experiment: Inhibition of AMPA receptor in mouse cortical neurons assessed as effect on AMPA currents; type: protein-complex assay
[2] = target: Transient receptor potential cation channel subfamily M member 7 (Rattus norvegicus) (UniProt Q925B3); experiment: Inhibition of TRPM7 in rat H9c2 cells assessed as protection against oxygen glucose deprivation-induced cell death at 0.05 to 5 uM pre-treated for 24 hrs before OGD; type: cell-based
[3] = target: Transient receptor potential cation channel subfamily M member 7 (Rattus norvegicus) (UniProt Q925B3); experiment: Inhibition of TRPM7 in cultured rat retinal ganglion cells exposed to oxygen glucose deprivation condition for 3 hrs assessed as protection against TRPM7-mediated cell death at by propidium iodide uptake assay; parameters: scale not given: the % may be the effect or the level left
[4] = target: Transient receptor potential cation channel subfamily A member 1 (Homo sapiens) (UniProt O75762); experiment: Inhibition of TRPA1 ((unknown origin) expressed in HEK293 cells assessed as effect on agonist-induced Ca2+ changes; type: functional, cell-based
Rattus norvegicus [5] = organism: Rattus norvegicus; experiment: Reduction in retinal cell death in rat model of acute glaucoma assessed as reduction in TUNEL positive cells after exposure to 1 hr high IOP at 1 uM; type: functional, organism-based
[6] = target: Transient receptor potential cation channel subfamily M member 7 (Rattus norvegicus) (UniProt Q925B3); experiment: Inhibition of TRPM7 in rat H9C2 cells exposed to oxygen glucose deprivation condition for 1 to 6 hrs assessed as reduction in TRPM7-mediated anoxic cell death in presence of 1 uM nifedipine by propidium iodide uptake assay; type: cell-based
[7] = target: Transient receptor potential cation channel subfamily M member 7 (Mus musculus) (UniProt Q923J1); experiment: Inhibition of TRPM7 in mouse primary neuronal cells exposed to oxygen glucose deprivation condition for 1 to 3 hrs assessed as reduction in TRPM7-mediated anoxic cell death dosed before oxygen glucose deprivation condition by propidium iodide uptake assay; conditions: Primary neuron
Mus musculus [8] = organism: Mus musculus; experiment: Inhibition of sodium channel in mouse cortical neurons assessed as effect on Na+ currents
[9] = target: Transient receptor potential cation channel subfamily M member 7 (Rattus norvegicus) (UniProt Q925B3); experiment: Inhibition of TRPM7 in Sprague-Dawley rat retinal explants subjected to 1 hr oxygen-glucose deprivation assessed as reduction in retinal ischemia at 5 uM
Mus musculus [10] = experiment: Toxicity in mouse up to 150 uM, iv; type: organism-based; conditions: in vivo
[11] = target: Transient receptor potential cation channel subfamily M member 7 (Rattus norvegicus) (UniProt Q925B3); experiment: Inhibition of TRPM7 in rat H9c2 cells assessed as protection against oxygen glucose deprivation-induced cell death at 0.05 to 5 uM; type: cell-based
[12] = target: Protein XNDC1N (Homo sapiens) (UniProt Q6ZNB5); experiment: Inhibition of TRPC2 (unknown origin) expressed in HEK293 cells assessed as effect on agonist-induced Ca2+ changes; type: functional, cell-based
[13] = target: Transient receptor potential cation channel subfamily M member 7 (Mus musculus) (UniProt Q923J1); experiment: Inhibition of Tet-induced Flag-tagged mouse TRPM7 expressed in HEK293 cells assessed as reduction in channel currents at 0.3 to 30 uM by whole cell patch clamp assay; type: cell-based
[14] = target: Transient receptor potential cation channel subfamily M member 7 (Mus musculus) (UniProt Q923J1); experiment: Inhibition of Tet-induced Flag-tagged mouse TRPM7 expressed in HEK293 cells assessed as reduction in channel currents at 2 mM using compound applied extracellularly by whole cell patch clamp assay; type: cell-based
[15] = Inhibition of cell proliferation of human WERI cells at 10 uM incubated for 48 to 96 hrs; type: functional
[16] = target: Transient receptor potential cation channel subfamily M member 6 (Homo sapiens) (UniProt Q9BX84); experiment: Inhibition of TRPM6 (unknown origin) expressed in HEK293 cells assessed as effect on agonist-induced Ca2+ changes; type: functional, cell-based
[17] = target: Transient receptor potential cation channel subfamily M member 7 (Mus musculus) (UniProt Q923J1); experiment: Inhibition of TRPM7 in mouse mouse primary cortical neurons exposed to 1 hrs oxygen glucose deprivation condition assessed as reduction in TRPM7-mediated anoxic cell death at 1.25 to 10 uM measured after 20 hrs by propidium iodide uptake assay; type: cell-based; conditions: Cerebral cortex neuron
[18] = target: Transient receptor potential cation channel subfamily M member 2 (Homo sapiens) (UniProt O94759); experiment: Inhibition of TRPM2 (unknown origin) expressed in HEK293 cells assessed as effect on agonist-induced Ca2+ changes; type: functional, cell-based
Mus musculus [19] = organism: Mus musculus; experiment: Inhibition of potassium channel in mouse cortical neurons assessed as reduction in potassium currents at -10mV membrane potential
Mus musculus [20] = experiment: Reduction in damage to heart in mouse model of myocardial infarction at 10 to 35 ug/kg; type: functional, organism-based
[21] = target: Transient receptor potential cation channel subfamily M member 4 (Homo sapiens) (UniProt Q8TD43); experiment: Inhibition of TRPM4 (unknown origin) expressed in HEK293 cells assessed as effect on agonist-induced Ca2+ changes; type: functional, cell-based
Mus musculus [22] = experiment: Reduction in dead cells following LAD restriction of heart in mouse model of permanent LAD coronary artery ligation at 10 to 100 ug/kg, iv administered as single dose within 15 mins of LAD occlusion by TUNEL assay; type: functional, organism-based
[23] = target: Transient receptor potential cation channel subfamily M member 7 (Rattus norvegicus) (UniProt Q925B3); experiment: Inhibition of TRPM7 in rat H9c2 cells assessed as protection against oxygen glucose deprivation-induced cell death at 0.05 to 5 uM applied during OGD; type: cell-based
[24] = target: Transient receptor potential cation channel subfamily V member 1 (Homo sapiens) (UniProt Q8NER1); experiment: Inhibition of TRPV1 (unknown origin) expressed in HEK293 cells assessed as effect on agonist-induced Ca2+ changes; type: functional, cell-based
[25] = target: Transient receptor potential cation channel subfamily M member 7 (Mus musculus) (UniProt Q923J1); experiment: Inhibition of TRPM7 in mouse mouse primary cortical neurons exposed to 2 hrs oxygen glucose deprivation condition assessed as reduction in TRPM7-mediated anoxic cell death measured after 20 hrs by propidium iodide uptake assay; type: cell-based; conditions: Cerebral cortex neuron
Rattus norvegicus [26] = experiment: Analgesic activity in iv dosed rat model of formalin-induced inflammatory pain assessed reduction in formalin-induced phase-1 pain flinches; type: functional, organism-based
[27] = target: Glutamate NMDA receptor (Mus musculus) (UniProt P35436+Q91ZU9+Q03391+P35438+Q01097+Q01098+A2AIR5); experiment: Inhibition of NMDA receptor in mouse cortical neurons assessed as effect on NMDA currents; type: protein-complex assay
[28] = target: Transient receptor potential cation channel subfamily M member 7 (Mus musculus) (UniProt Q923J1); experiment: Inhibition of TRPM7 in mouse primary neuronal cells exposed to oxygen glucose deprivation condition for 1 to 3 hrs assessed as reduction in TRPM7-mediated anoxic cell death dosed after oxygen glucose deprivation condition by propidium iodide uptake assay; conditions: Primary neuron
Mus musculus [29] = organism: Mus musculus; experiment: Inhibition of calcium channel in mouse cortical neurons assessed as effect on Ca2+ currents; type: functional
[30] = target: Transient receptor potential cation channel subfamily M member 7 (Mus musculus) (UniProt Q923J1); experiment: Inhibition of Tet-induced Flag-tagged mouse TRPM7 expressed in HEK293 cells assessed as inhibition of channel-mediated cell death in presence of Mg2+ incubated for 24 to 48 hrs by propidium iodide uptake assay; type: cell-based; parameters: concentration or dose not given beside the values
[31] = target: Transient receptor potential cation channel subfamily M member 7 (Rattus norvegicus) (UniProt Q925B3); experiment: Inhibition of TRPM7 in rat retinal explants exposed to oxygen glucose deprivation condition for 1 hr assessed as protection against TRPM7-mediated cell death at by propidium iodide uptake assay
[32] = target: Transient receptor potential cation channel subfamily M member 7 (Mus musculus) (UniProt Q923J1); experiment: Inhibition of Tet-induced Flag-tagged mouse TRPM7 expressed in HEK293 cells assessed as reduction in channel currents at 2 mM using compound applied intracellularly by whole cell patch clamp assay; type: cell-based
Mus musculus [33] = experiment: Reduction in infarct volume in mouse model of permanent LAD coronary artery ligation at 10 to 335 ug/kg, iv administered as single dose within 15 mins of LAD occlusion by TTC staining based method; type: functional, organism-based
[34] = target: Transient receptor potential cation channel subfamily M member 7 (Rattus norvegicus) (UniProt Q925B3); experiment: Inhibition of TRPM7 in rat H9c2 cells assessed as protection against oxygen glucose deprivation-induced cell death at 0.05 to 5 uM in presence of 1 uM nifedipine; type: cell-based
[35] = target: Transient receptor potential cation channel subfamily M member 7 (Rattus norvegicus) (UniProt Q925B3); experiment: Inhibition of TRPM7 in Sprague-Dawley rat retinal explants dissociated and subjected to 1 hr oxygen-glucose deprivation assessed as reduction in retinal cell death at 1 and 5 uM
[36] = target: Transient receptor potential cation channel subfamily M member 7 (Rattus norvegicus) (UniProt Q925B3); experiment: Inhibition of TRPM7 in rat H9C2 cells exposed to 6 hrs oxygen glucose deprivation condition followed by 2 hrs recovery assessed as reduction in TRPM7-mediated anoxic cell death at 0.05 to 5 uM by propidium iodide uptake assay; type: cell-based
[37] = target: Transient receptor potential cation channel subfamily M member 7 (Rattus norvegicus) (UniProt Q925B3); experiment: Inhibition of TRPM7 in rat H9c2 cells assessed as protection against oxygen glucose deprivation-induced cell death at 0.05 to 5 uM pre-treated for 24 hrs before OGD in presence of 1 uM nifedipine; type: cell-based
[38] = target: Transient receptor potential cation channel subfamily M member 7 (Rattus norvegicus) (UniProt Q925B3); experiment: Inhibition of TRPM7 in rat H9C2 cells assessed as reduction in channel currents at 0.3 to 30 uM by whole cell patch clamp assay; type: cell-based
Rattus norvegicus [39] = experiment: Analgesic activity in iv dosed rat model of formalin-induced inflammatory pain assessed reduction in formalin-induced phase-2 pain flinches; type: functional, organism-based
[40] = target: Transient receptor potential cation channel subfamily M member 7 (Mus musculus) (UniProt Q923J1); experiment: Inhibition of TRPM7 in mouse AML12 cells assessed as protection against oxygen glucose deprivation-induced cell death at 0.5 to 5 uM; type: cell-based

Chain of Transient receptor potential cation channel subfamily M member 7 (Mus musculus) (Q923J1 whole entry): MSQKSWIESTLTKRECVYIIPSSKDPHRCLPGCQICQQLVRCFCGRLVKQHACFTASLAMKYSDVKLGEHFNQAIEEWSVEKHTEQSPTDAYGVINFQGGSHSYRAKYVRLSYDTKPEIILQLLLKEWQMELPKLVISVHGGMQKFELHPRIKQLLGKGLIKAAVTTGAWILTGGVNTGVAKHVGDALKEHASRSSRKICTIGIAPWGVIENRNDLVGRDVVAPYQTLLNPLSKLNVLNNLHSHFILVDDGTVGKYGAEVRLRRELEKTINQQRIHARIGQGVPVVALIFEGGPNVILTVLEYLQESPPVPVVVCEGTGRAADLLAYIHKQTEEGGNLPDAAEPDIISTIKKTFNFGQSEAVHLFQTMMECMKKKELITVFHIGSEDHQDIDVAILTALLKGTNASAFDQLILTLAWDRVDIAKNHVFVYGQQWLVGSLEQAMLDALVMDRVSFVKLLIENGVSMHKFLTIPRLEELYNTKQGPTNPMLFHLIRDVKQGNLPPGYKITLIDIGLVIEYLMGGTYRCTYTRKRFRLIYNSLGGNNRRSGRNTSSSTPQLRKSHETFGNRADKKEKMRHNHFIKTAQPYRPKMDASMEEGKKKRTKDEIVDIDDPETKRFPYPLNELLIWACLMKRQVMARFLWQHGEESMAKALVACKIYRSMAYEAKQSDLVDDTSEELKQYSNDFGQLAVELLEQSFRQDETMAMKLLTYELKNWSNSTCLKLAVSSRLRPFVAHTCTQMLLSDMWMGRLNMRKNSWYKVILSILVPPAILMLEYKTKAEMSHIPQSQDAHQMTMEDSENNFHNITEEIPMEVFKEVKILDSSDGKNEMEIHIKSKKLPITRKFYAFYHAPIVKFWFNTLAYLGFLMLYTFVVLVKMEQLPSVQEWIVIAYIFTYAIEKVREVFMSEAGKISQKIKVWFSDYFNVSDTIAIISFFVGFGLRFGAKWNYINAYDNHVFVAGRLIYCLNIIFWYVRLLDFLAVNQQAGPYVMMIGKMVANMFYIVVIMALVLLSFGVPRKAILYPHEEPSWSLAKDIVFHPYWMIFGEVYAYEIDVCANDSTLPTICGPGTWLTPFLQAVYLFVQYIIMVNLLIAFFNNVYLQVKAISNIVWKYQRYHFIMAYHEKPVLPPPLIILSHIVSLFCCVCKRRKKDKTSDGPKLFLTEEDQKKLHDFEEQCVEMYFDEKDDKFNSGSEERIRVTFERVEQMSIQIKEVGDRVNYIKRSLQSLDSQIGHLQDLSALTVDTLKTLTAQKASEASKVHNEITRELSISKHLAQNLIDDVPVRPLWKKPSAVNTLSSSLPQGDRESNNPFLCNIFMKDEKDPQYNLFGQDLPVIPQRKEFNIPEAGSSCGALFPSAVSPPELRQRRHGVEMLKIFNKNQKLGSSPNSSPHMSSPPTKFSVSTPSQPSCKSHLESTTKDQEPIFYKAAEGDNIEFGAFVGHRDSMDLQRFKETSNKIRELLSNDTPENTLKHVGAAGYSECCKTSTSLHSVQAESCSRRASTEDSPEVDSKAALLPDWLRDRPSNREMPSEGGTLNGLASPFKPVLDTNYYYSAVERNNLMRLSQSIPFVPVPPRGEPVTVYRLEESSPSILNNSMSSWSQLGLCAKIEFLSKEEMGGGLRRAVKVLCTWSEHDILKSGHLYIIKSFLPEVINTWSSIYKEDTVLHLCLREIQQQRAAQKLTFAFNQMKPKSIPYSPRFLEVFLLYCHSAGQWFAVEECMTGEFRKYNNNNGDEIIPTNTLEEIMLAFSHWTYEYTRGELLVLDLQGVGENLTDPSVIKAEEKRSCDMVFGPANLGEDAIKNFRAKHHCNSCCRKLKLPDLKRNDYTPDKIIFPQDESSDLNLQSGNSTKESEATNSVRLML
Chain of Transient receptor potential cation channel subfamily M member 7 (Rattus norvegicus) (Q925B3 whole entry): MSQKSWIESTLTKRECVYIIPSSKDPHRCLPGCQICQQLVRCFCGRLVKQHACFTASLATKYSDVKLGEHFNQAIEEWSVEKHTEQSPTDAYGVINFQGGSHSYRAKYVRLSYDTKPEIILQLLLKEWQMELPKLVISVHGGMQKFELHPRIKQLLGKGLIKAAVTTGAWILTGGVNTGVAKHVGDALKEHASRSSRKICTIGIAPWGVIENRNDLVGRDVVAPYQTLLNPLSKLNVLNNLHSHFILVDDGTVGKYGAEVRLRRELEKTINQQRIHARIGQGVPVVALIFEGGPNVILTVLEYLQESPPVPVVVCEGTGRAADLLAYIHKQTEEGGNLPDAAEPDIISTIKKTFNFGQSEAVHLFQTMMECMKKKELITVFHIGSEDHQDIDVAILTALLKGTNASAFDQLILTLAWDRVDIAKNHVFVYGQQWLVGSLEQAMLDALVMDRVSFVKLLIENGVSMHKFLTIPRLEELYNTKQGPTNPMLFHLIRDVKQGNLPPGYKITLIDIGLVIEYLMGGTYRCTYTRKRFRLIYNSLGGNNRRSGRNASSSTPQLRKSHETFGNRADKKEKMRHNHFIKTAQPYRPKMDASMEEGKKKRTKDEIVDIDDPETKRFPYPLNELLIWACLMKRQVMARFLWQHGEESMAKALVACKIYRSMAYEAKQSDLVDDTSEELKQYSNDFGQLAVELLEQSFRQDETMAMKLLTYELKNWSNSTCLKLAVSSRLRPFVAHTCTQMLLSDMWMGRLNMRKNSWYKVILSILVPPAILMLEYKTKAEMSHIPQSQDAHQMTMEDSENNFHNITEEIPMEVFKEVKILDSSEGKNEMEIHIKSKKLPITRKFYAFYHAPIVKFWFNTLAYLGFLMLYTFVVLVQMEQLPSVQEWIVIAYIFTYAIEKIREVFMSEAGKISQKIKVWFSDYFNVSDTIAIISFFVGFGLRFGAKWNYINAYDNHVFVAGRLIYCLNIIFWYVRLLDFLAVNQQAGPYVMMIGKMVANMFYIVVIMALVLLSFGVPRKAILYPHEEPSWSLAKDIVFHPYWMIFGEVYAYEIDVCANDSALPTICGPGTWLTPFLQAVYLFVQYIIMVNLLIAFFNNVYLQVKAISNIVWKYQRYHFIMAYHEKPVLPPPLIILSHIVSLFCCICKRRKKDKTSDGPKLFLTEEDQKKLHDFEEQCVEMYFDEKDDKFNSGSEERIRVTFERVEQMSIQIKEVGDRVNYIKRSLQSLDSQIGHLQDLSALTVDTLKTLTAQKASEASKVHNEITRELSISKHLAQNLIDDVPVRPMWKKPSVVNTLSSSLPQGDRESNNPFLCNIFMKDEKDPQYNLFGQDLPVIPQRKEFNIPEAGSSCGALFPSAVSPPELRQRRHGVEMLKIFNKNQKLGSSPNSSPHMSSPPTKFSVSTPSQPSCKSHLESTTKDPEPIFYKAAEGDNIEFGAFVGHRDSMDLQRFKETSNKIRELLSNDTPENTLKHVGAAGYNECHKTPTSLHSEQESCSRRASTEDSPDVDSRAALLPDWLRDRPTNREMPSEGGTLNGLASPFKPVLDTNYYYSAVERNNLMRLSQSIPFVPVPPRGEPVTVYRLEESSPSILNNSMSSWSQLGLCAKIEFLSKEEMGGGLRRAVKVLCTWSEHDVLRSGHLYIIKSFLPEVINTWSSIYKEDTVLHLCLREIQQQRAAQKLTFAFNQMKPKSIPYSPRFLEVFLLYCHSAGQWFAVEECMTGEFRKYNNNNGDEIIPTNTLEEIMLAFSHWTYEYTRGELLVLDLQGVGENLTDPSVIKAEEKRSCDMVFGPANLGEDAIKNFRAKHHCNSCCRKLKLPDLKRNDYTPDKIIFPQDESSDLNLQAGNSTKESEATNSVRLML
Chain of Transient receptor potential cation channel subfamily A member 1 (Homo sapiens) (O75762 whole entry): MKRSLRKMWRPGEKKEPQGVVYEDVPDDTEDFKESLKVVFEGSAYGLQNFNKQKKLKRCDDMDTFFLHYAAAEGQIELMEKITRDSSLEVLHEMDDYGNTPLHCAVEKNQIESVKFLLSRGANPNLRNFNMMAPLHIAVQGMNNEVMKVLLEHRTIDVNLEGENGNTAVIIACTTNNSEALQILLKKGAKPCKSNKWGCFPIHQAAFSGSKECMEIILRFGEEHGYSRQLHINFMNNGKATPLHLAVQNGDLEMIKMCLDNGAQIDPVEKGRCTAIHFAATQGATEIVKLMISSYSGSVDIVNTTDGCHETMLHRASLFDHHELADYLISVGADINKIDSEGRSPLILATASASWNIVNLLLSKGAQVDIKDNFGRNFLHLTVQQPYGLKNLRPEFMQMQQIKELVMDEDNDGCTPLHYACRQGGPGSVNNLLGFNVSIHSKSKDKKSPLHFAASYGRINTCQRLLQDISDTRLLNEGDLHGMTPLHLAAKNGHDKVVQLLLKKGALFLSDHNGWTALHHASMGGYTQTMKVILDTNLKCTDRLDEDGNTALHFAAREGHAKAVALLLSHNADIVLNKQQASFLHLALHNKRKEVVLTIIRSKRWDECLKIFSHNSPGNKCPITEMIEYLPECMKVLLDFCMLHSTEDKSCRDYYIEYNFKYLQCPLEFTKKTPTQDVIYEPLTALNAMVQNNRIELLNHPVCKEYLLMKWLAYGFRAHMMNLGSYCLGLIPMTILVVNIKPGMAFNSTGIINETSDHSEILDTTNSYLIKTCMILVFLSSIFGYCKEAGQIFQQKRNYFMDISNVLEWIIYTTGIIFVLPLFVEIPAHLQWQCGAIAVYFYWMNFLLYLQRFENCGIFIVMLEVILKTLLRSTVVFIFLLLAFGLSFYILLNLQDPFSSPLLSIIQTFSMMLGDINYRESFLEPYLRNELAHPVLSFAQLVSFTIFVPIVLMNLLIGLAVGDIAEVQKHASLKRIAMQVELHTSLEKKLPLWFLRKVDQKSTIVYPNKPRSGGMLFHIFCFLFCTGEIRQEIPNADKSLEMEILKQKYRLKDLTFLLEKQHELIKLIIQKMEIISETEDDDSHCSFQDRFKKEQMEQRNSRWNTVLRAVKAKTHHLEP
Chain of Protein XNDC1N (Homo sapiens) (Q6ZNB5 whole entry): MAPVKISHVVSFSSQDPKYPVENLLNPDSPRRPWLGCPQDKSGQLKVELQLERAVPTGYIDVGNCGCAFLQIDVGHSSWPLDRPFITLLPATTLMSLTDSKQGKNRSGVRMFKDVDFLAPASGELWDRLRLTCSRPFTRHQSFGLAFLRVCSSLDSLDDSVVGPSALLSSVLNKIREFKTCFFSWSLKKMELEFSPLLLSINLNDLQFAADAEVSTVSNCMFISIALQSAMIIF

Cc1c(Cc2ccc(Cl)c(Cl)c2)c(=O)oc2cc(O)ccc12
inhibition [1]: inactive | inhibition [2]: Active | Activity [3]: 66% | inhibition [4]: inactive | Activity (Rattus norvegicus [5]): Active | inhibition [6]: Active | inhibition [7]: Active | inhibition (Mus musculus [8]): inactive | inhibition [9]: Active | Activity (Mus musculus [10]): Non-toxic | inhibition [11]: Active | inhibition [12]: inactive | inhibition [13]: Active | inhibition [14]: Active | inhibition at 10 µM [15]: > 20% | inhibition [16]: inactive | inhibition [17]: Active | inhibition [18]: inactive | inhibition (Mus musculus [19]): 20% | Activity (Mus musculus [20]): Active | inhibition [21]: inactive | Activity (Mus musculus [22]): Active | inhibition [23]: Active | inhibition [24]: inactive | inhibition [25]: Active | Activity (Rattus norvegicus [26]): inactive | inhibition [27]: inactive | inhibition [28]: Active | inhibition (Mus musculus [29]): inactive | inhibition [30]: Active | inhibition [31]: Active | inhibition [32]: inactive | Activity (Mus musculus [33]): Active | inhibition [34]: Active | inhibition [35]: Active | inhibition [36]: Active | inhibition [37]: Active | inhibition [38]: Active | Activity (Rattus norvegicus [39]): Active | inhibition [40]: Active
